Assay results from patent US20040076974A1, “Liver necrosis predictive genes” (priority 2002, published 2004).
Where “and” joins values, the source holds several entries; their conditions need not be identical. Equal values may be shown once. Read-outs that look alike come from different tables or passages of the source.

Tests used:
Sprague Dawley rats = tested on: Sprague Dawley rats
Outline: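 Toxicity calls (necrosis present or absent at 72 h) and histopathology scores were correlated with tissue gene expression from Crl:CD Sprague Dawley rats. Animals, usually 3 treated with compound by i.p. route and 3 given vehicle, were killed at 6, 24 or 72 h and tissues frozen immediately in liquid nitrogen.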

[1] = tested on: toxicologically relevant rat genes (rat CT array)
[2] = 24 h, treatment/control, dose 2, listed as CHEX

C[C@@H]1C[C@@H]([C@H](O)CC2CC(=O)NC(=O)C2)C(=O)[C@@H](C)C1 [cycloheximide]
Liver Toxicity Necrosis Classification (Sprague Dawley rats; 72 h, dose 0.5): no
Liver Toxicity Necrosis Classification (Sprague Dawley rats; 72 h; dose 2; animals 2257-2259): no
Liver Toxicity Necrosis Classification (Sprague Dawley rats; compound-dose group CHEX 0.5; at 72 h): no
Liver Toxicity Necrosis Classification (Sprague Dawley rats; compound-dose group CHEX 2; at 72 h): no
Liver Toxicity Necrosis Classification (Sprague Dawley rats; compound-dose group at 72 h, dose 0.5): no
Liver Toxicity Necrosis Classification (Sprague Dawley rats; compound-dose group at 72 h, dose 2): no
Liver Toxicity Necrosis Classification (Sprague Dawley rats; compound-dose group at 72 h; dose 2): no
Liver Necrosis (Sprague Dawley rats; rat, intraperitoneal, dose 0.5 mg/kg, 72 hours after treatment): no
Score (histopathology liver necrosis severity score) (Sprague Dawley rats; rat, intraperitoneal, dose 0.5 mg/kg, 72 hours; 1 = not remarkable, 2 and higher increasing severity): 1
Liver Necrosis (Sprague Dawley rats; rat, intraperitoneal, dose 2 mg/kg, 72 hours after treatment): no
Score (histopathology liver necrosis severity score) (Sprague Dawley rats; rat, intraperitoneal, dose 2 mg/kg, 72 hours; 1 = not remarkable, 2 and higher increasing severity): 1
Aflatoxin B1 aldehyde reductase expression ([1]; 24 h): 0.3081 and 0.5569
3-hydroxyisobutyrate dehydrogenase expression [1, 2]: 0.7822 and 0.6854
14-3-3 zeta expression [1, 2]: 1.308 and 1.217
17-beta hydroxysteroid dehydrogenase, type 2 expression [1, 2]: 0.8086 and 0.8289
60S ribosomal protein L6 expression [1, 2]: 4.046 and 3.164
ATPase inhibitor (rat mitochondrial IF1 protein) expression [1, 2]: 1.104
Alpha 1 - inhibitor III expression [1, 2]: 0.1985 and 0.3033
Alpha-2-macroglobulin expression [1, 2]: 8.537 and 10.8864
Bax (alpha) expression [1, 2]: 3.909 and 3.079
Beta-actin expression [1, 2]: 1.582
Calpactin I heavy chain expression [1, 2]: 1.21 and 1.278
Carbamyl phosphate synthetase I expression [1, 2]: 2.339 and 1.425
Carbonic anhydrase III expression [1, 2]: 0.09817 and 0.117
Cathepsin L, sequence 2 expression [1, 2]: 3.293 and 1.752
Dynamin-1 (D100) expression [1, 2]: 0.7964 and 0.6968
Epidermal growth factor expression [1, 2]: 0.7851 and 0.8391
Equilbrative nitrobenzylthioinosine-sensitive nucleoside transporter expression [1, 2]: 0.434 and 0.4974
Fas antigen expression [1, 2]: 1.655 and 1.544
Gadd45 expression [1, 2]: 1.068 and 0.9225
Gadd153 expression [1, 2]: 2.348 and 2.179
Gamma-actin, cytoplasmic expression [1, 2]: 2.831 and 2.8
Glucose-regulated protein 78 expression [1, 2]: 1.943
Hepatic lipase expression [1, 2]: 0.425 and 0.4085
ID-1 expression [1, 2]: 1.831 and 1.476
Insulin-like growth factor I expression [1, 2]: 0.632 and 0.7238
Insulin-like growth factor binding protein 1 expression [1, 2]: 1.891
Insulin-like growth factor binding protein 3 expression [1, 2]: 0.6015 and 0.8706
Integrin beta1 expression [1, 2]: 1.973 and 1.549
L-gulono-gamma-lactone oxidase expression [1, 2]: 0.1815 and 0.3251
Matrin F/G expression [1, 2]: 0.6684 and 0.8266
Monocyte chemotactic protein receptor (CCR2) expression [1, 2]: 1.356
Organic anion transporter 3 expression [1, 2]: 0.6196 and 0.8226
Organic cation transporter 3 expression [1, 2]: 3.288 and 2.799
Ornithine decarboxylase expression [1, 2]: 1.809 and 2.529
PAR interacting protein expression [1, 2]: 2.494 and 1.775
Phase-1 RCT 252 expression [1, 2]: 2.109
Phase-1 RCT-15 expression [1, 2]: 2.098
Phase-1 RCT-36 expression [1, 2]: 0.9535
Phase-1 RCT-38 expression [1, 2]: 0.8074 and 1.436
Phase-1 RCT-40 expression [1, 2]: 0.5868 and 0.6253
Phase-1 RCT-48 expression [1, 2]: 0.8259
Phase-1 RCT-50 expression [1, 2]: 3.394 and 1.867
Phase-1 RCT-78 expression [1, 2]: 0.6678 and 0.6463
Phase-1 RCT-83 expression [1, 2]: 0.7709 and 0.5883
Phase-1 RCT-88 expression [1, 2]: 0.5622 and 0.699
Phase-1 RCT-89 expression [1, 2]: 0.3912 and 0.666
Phase-1 RCT-92 expression [1, 2]: 0.5483 and 0.6236
Phase-1 RCT-102 expression [1, 2]: 0.1629 and 0.3219
Phase-1 RCT-117 expression [1, 2]: 0.5435 and 0.8114
Phase-1 RCT-128 expression [1, 2]: 0.7358 and 0.5601
Phase-1 RCT-137 expression [1, 2]: 0.897
Phase-1 RCT-144 expression [1, 2]: 1.698 and 1.552
Phase-1 RCT-145 expression [1, 2]: 1.962 and 1.531
Phase-1 RCT-152 expression [1, 2]: 3.068 and 2.149
Phase-1 RCT-179 expression [1, 2]: 1.874 and 1.726
Phase-1 RCT-180 expression [1, 2]: 1.992 and 1.731
Phase-1 RCT-182 expression [1, 2]: 0.648 and 0.4739
Phase-1 RCT-189 expression [1, 2]: 0.7556 and 0.7413
Phase-1 RCT-207 expression [1, 2]: 3.54 and 2.206
Phase-1 RCT-213 expression [1, 2]: 2.298 and 1.558
Phase-1 RCT-241 expression [1, 2]: 2.805 and 1.626
Phase-1 RCT-256 expression [1, 2]: 0.7478
Phase-1 RCT-264 expression [1, 2]: 0.3258 and 0.288
Phase-1 RCT-270 expression [1, 2]: 0.3824 and 0.3779
Phase-1 RCT-271 expression [1, 2]: 0.6863 and 0.7351
Phase-1 RCT-288 expression [1, 2]: 0.7066 and 0.6813
Phase-1 RCT-291 expression [1, 2]: 0.9117
Phase-1 RCT-295 expression [1, 2]: 1.809 and 1.772
Phase-1 RCT-296 expression [1, 2]: 0.1325 and 0.1028
Ribosomal protein L13A expression [1, 2]: 3.222 and 2.597
Ribosomal protein S17 expression [1, 2]: 3.701 and 3.311
Sodium/bile acid cotransporter expression [1, 2]: 0.2803 and 0.3733
Transthyretin expression [1, 2]: 0.3341 and 0.2879
Ubiquitin conjugating enzyme (RAD 6 homologue) expression [1, 2]: 1.788 and 1.624
c-jun expression [1, 2]: 1.591 and 1.111
c-myc expression [1, 2]: 1.683 and 1.143
Paraoxonase 1 expression ([1]; rat, in vivo): 0.4607 and 0.4822
